Patent US6372719B1, “ανβ3 integrin antagonists in combination with chemotherapeutic agents” (priority 1998, dated 2002)

Key:
Rice Leydig tumor cells = assay: Tumor growth inhibition, Rice Leydig tumor in SCID mice
Protocol: Tumor cells for implantation were taken from cells either grown in tissue culture (Leydig, M21) or serially passaged as tumors in mice and prepared as tumor brei (LLC, PC-3) by methodology known in the art. Mice were injected subcutaneously in the proximal dorsal midline with 5×10^6 tumor cells and administration of test αvβ3 integrin antagonist compound was initiated the evening of the same day either prior to the chemotherapeutic agent, delayed and on the same day as the chemotherapeutic agent or delayed and following the chemotherapeutic agent. Tumor volumes were measured at intervals over the course of the experiments. Tumors were measured with a vernier caliper and volumes were determined using the formula for the volume of a cylinder: tumor volume=width^2×length×0.52. […] On the final day of the experiment, tumors were dissected free and weighed. […] The data are expressed as the mean +/− SEM. Student's and Mann-Whitney tests were used to assess differences between means or medians using the InStat software package.

LLC tumor = assay: Tumor growth inhibition, LLC tumor in mice
Protocol: Tumor cells for implantation were taken from cells either grown in tissue culture (Leydig, M21) or serially passaged as tumors in mice and prepared as tumor brei (LLC, PC-3) by methodology known in the art. Mice were injected subcutaneously in the proximal dorsal midline with 5×10^6 tumor cells and administration of test αvβ3 integrin antagonist compound was initiated the evening of the same day either prior to the chemotherapeutic agent, delayed and on the same day as the chemotherapeutic agent or delayed and following the chemotherapeutic agent. Tumor volumes were measured at intervals over the course of the experiments. Tumors were measured with a vernier caliper and volumes were determined using the formula for the volume of a cylinder: tumor volume=width^2×length×0.52. Blood was routinely drawn, for serum calcium determination and plasma drug concentration, 6 hours post-dosing on day 4 or 5 and again 12 hours post-dosing on the day of sacrifice. On the final day of the experiment, tumors were dissected free and weighed. Calcium concentrations of serum samples were determined calorimetrically using a clinical diagnostic kit. The data are expressed as the mean +/− SEM. Student's and Mann-Whitney tests were used to assess differences between means or medians using the InStat software package.

M21 human melanoma = assay: Tumor growth inhibition, M21 human melanoma in mice; format: in vivo, SCID mice; details: cyclophosphamide 150 mg/kg ip on days 14, 16 and 18
Protocol: In this model, cyclophosphamide was administered (150 mg/kg;ip) on days 14, 16 and 18, and XII (10 mg/kg, BID, PO) was administered continuously after the chemotherapeutic beginning on day 21.

[1] = cisplatin 10 mg/kg ip day 5, XII at 10 mg/kg

## N.N.[Cl][Pt][Cl] [Cisplatin, cisplatin]
Rice Leydig tumor cells; cisplatin at maximum tolerated dose, XII 10 mg/kg PO, compared to control-treated mice
  Tumor growth inhibition: approximately 50%
Rice Leydig tumor cells; tumor bearing SCID mice
  Effect on survival time: little effect
LLC tumor; [1]
  Median survival time: 33 days
  Time to develop a tumor >500 mm^3: 22.4 days
LLC tumor; cisplatin single ip dose 10 mg/kg on day 5, XII 1 and 10 mg/kg, oral, BID from day 1
  Effect on growth of the LLC tumor: significantly retarded

## O=P1(N(CCCl)CCCl)NCCCO1 (stereo not drawn) [Cyclophosphamide, cyclophosphamide]
M21 human melanoma
  Inhibition of growth of M21 tumors: significantly inhibited
